The values below come from PMC8788626 (Lung cancer (Amsterdam, Netherlands), 2017).

One may read the Tmax as the time at which the peak concentration occurs. In general, AUC(0-t) refers to the area under the concentration-time curve up to a stated or last time point. The term Cmax denotes the highest concentration seen after dosing.

The nature of data set [1]: Plasma pharmacokinetics of dacomitinib and metabolite PF-05199265. Format: in vivo, patients. To be noted: for Pre-dose (0 h) plasma concentration, mean (CV%) / Pre-dose (0 h) plasma concentration, median: Cycle 0, Day 4, 45 mg dacomitinib q12 h.
The conditions of data set [2]: continuous daily dosing; cited from earlier work.
The subject of data set [3] is patients with advanced NSCLC. Particulars: in vivo.
The test system of data set [4] is QT interval. Nature of the data set: ECG analysis of QTc interval change from baseline. It is filed as in vivo, patients.
The subject of data set [5] is EGFR-mutant lung cancers. To be noted: first line, subset with EGFR-mutant lung cancers; cited from earlier work.
Data set [6] deals with T790M-negative, otherwise molecularly unselected advanced NSCLC. The data set is described as follows: Phase 2 study of intermittent pulse dacomitinib, efficacy, Cohort B. Format: in vivo, patients. Particulars: 95% CI 1.0–3.3 months.
In data set [7] the test system is EGFR-mutant lung cancer. Particulars: first-line therapy, standard daily dosing, ARCHER 1050; cited from earlier work.
For data set [8], the system named is lung cancers harboring EGFR T790M. It is filed as in vivo, patients. To be noted: Cohort A.
[9] abbreviates: Cycle 0, Day 4, following 6 doses (q12 h) of 45 mg dacomitinib.
Setting [10] is: Cycle 1, Day 1, following 3 day washout after 6 doses (q12 h) of 45 mg dacomitinib.
Where [11] appears, read: Cycle 1, Day 4, following 5 doses (q12 h) of 60 mg dacomitinib.

Structures are written as SMILES. Several values for one entry are separate records, joined by “and”; a condition that tells them apart may be missing. Identical values can stand only once.

With `O=C(/C=C/CN1CCCCC1)Nc1cc2c(Nc3ccc(F)c(Cl)c3)ncnc2cc1O` [PF-05199265], in data set [1], the “Pre-dose (0 h) plasma concentration, mean (CV%)” value is 7.1 ng/mL and 7.1 (161) ng/mL; the “Pre-dose (0 h) plasma concentration, median” value was found to be 4.6 ng/mL. Moreover, in data set [1] (setting [9]), the “AUC0–10, mean (CV%)” value is recorded as 75.0 (148) ng h/mL; the “AUC0–10, median” value is 50.8 ng·h/mL; the “Cmax, mean (CV%)” value is 8.5 (150) ng/mL; the “Cmax, median” value is given as 5.9 ng/mL. Further, in data set [1] (setting [9]), the “Cmin, mean (CV%)” value is 6.8 (157) ng/mL; the “Cmin, median” value is recorded as 4.5 ng/mL; the “Tmax, median (minimum–maximum)” value is 5.6 (0–11.0) hr. Also, in data set [1] (setting [10]), the “Pre-dose plasma concentration, mean (CV%)” value is on record as 3.8 (83) ng/mL and the “Pre-dose plasma concentration, median” value is recorded as 2.8 ng/mL. Further, in data set [1] (setting [11]), the “Pre-dose plasma concentration, mean (CV%)” value is on record as 9.0 (93) ng/mL and the “Pre-dose plasma concentration, median” value stood at 7.43 ng/mL.

In the case of `COc1cc2ncnc(Nc3ccc(F)c(Cl)c3)c2cc1NC(=O)/C=C/CN1CCCCC1` [dacomitinib], the maximum tolerated dose in data set [2] is listed as 45 mg daily. Further, in data set [3] (human), the “Grade 3 treatment-emergent lymphopenia” value was 13.2%; the “frequency of the most frequent treatment-related toxicities (diarrhea, rash, stomatitis, nausea, dry skin, paronychia, fatigue, decreased appetite)” value is listed as > 20 % of patients; the “treatment-related serious adverse events: dehydration” value is given as 2; the “treatment-related serious adverse events: diarrhea” value amounted to 2. In data set [3] (human), the “treatment-related serious adverse events: nausea” value turned out to be 1. Besides, in data set [3], the “Grade 3 hypermagnesemia, patients” value was “three”; the “number of treatment-related serious adverse events” value was “five”; the “patients who discontinued study therapy due to a treatment-related adverse event” value was “No patients”; the “patients with at least one treatment-related adverse event” value was “All patients”. Besides, in data set [3], the “patients with treatment-related serious adverse events” value is recorded as “three” and the “treatment-related cardiac adverse events” value is reported as “no treatment-related cardiac adverse events”. In addition, in data set [1], the “Pre-dose (0 h) plasma concentration, mean (CV%)” value is listed as 76.4 ng/mL and the “Pre-dose (0 h) plasma concentration, median” value was determined as 68.4 ng/mL. Besides, the “Pre-dose (0 h) plasma concentration, mean (CV%)” value in data set [1] (listed as Dacomitinib) is listed as 76.4 (43) ng/mL. Moreover, in data set [1] (setting [9]), the “Cmin, mean (CV%)” value is 71.3 (39) ng/mL and the “Cmin, median” value worked out at 65.6 ng/mL. Also, in data set [1] (setting [10]), the “Pre-dose plasma concentration, mean (CV%)” value is on record as 32.1 (65) ng/mL and the “Pre-dose plasma concentration, median” value is reported as 26.9 ng/mL. For the same compound, in data set [1] (setting [11]), the “Pre-dose plasma concentration, mean (CV%)” value was 108.1 (39) ng/mL and the “Pre-dose plasma concentration, median” value came out at 100 ng/mL. In addition, the Tmax in data set [1] (human, plasma, oral, 45 mg) worked out at 6.1 h. The exposure AUC(0-t) in data set [1] (human, plasma, oral, 45 mg, AUC0–10, mean (CV%), Cycle 0, Day 4, following 6 doses (q12 h) of 45 mg dacomitinib) came out at 794 ng·h/mL. Moreover, in data set [1] (human, plasma, oral, 45 mg, AUC0–10, median, Cycle 0, Day 4, following 6 doses (q12 h) of 45 mg dacomitinib), the area under the curve AUC(0-t) is 728 ng·h/mL. Further, the Cmax in data set [1] (human, plasma, oral, 45 mg, mean (CV%), Cycle 0, Day 4, following 6 doses (q12 h) of 45 mg dacomitinib) was determined as 96.8 ng/mL. In addition, the Cmax in data set [1] (human, plasma, oral, 45 mg, median, Cycle 0, Day 4, following 6 doses (q12 h) of 45 mg dacomitinib) stood at 90.7 ng/mL. Further, the “upper limits of the 95% CI for the mean change from baseline in QTc (QTcB, QTcF, QTcS)” value in data set [4] (all Cycle 0 day 4 time points, 45 mg q12 h) was under 10 ms. Also, the “effect on cardiac repolarization” value in data set [4] (at exposures comparable to steady state of 45 mg daily regimen) is “no effects on cardiac repolarization”. Moreover, in data set [5], the “estimated median progression-free survival” value is reported as 18.2 months and the overall response rate is listed as 76%. In data set [6], the “median PFS” value was 1.6 months. In data set [7], the median progression-free survival is given as 14.7 months. Also, the “ORR (overall response rate)” value in data set [8] (16 patients, 95% CI 0.2%–30.2%, p-value = 0.15) came to 6.3%. Besides, the “median PFS” value in data set [8] (95% CI 1.4–4.4 months) amounted to 2.3 months.
